From patent US7595063B2, “Compressed tablet formulation” (Merck & Co., Inc., priority 1998, dated 2009)

Assay: crystallinity of efavirenz upon compression
Format: physicochemical
Conditions: compression into tablet

O=C1Nc2ccc(Cl)cc2[C@@](C#CC2CC2)(C(F)(F)F)O1 [efavirenz, (−)-6-chloro-4-cyclopropylethynyl-4-trifluoromethyl-1,4-dihydro-2H-3,1-benzoxazin-2-one]
crystallinity upon compression: loses crystallinity upon compression
